Details: Liquid, Vibrating object- edge clamped plate

CCCCCCCC [octane]
Details	mass density [kg/m3]	viscosity [mPa·s]
323.15 K, 100 kPa	676	0.3892
323.15 K, 10096 kPa	687.7	0.44
323.15 K, 20701 kPa	698.1	0.495
323.15 K, 30654 kPa	706.7	0.53
323.15 K, 41050 kPa	714.6	0.576
323.15 K, 54543 kPa	723.9	0.633
323.15 K, 68036 kPa	732.2	0.693
348.14 K, 100 kPa	654.3	0.3011
348.14 K, 7551 kPa	664.7	0.3338
348.14 K, 13680 kPa	672.2	0.3513
348.14 K, 20500 kPa	679.4	0.378
348.14 K, 27466 kPa	686.1	0.4008
348.14 K, 27469 kPa	686.1	0.4
348.14 K, 34305 kPa	692.1	0.424
348.14 K, 34314 kPa	690.8	0.424
348.14 K, 41226 kPa	697.9	0.449
348.14 K, 41227 kPa	697.8	0.449
348.14 K, 48070 kPa	703.1	0.471
348.14 K, 55000 kPa	708.2	0.498
348.14 K, 55004 kPa	708.1	0.499
348.14 K, 61992 kPa	714.2	0.522
348.14 K, 61994 kPa	712.8	0.533
373.12 K, 6723 kPa	644.7	0.2757
373.12 K, 6724 kPa	644.6	0.2758
373.12 K, 20592 kPa	662.9	0.3205
373.12 K, 20599 kPa	662.9	0.3217
373.12 K, 27397 kPa	670.3	0.3429
373.12 K, 27402 kPa	670.4	0.3429
373.12 K, 34317 kPa	677.1	0.3646
373.12 K, 34324 kPa	677.2	0.3649
373.12 K, 41184 kPa	683.5	0.381
373.12 K, 41207 kPa	683.6	0.38
373.12 K, 41221 kPa	683.6	0.384
373.12 K, 48024 kPa	689.2	0.409
373.12 K, 48032 kPa	689.1	0.409
373.12 K, 54853 kPa	694.6	0.433
373.12 K, 54866 kPa	694.6	0.432
373.12 K, 61686 kPa	699.8	0.447
373.12 K, 61704 kPa	699.8	0.449
423.09 K, 14725 kPa	620.5	0.229
423.09 K, 27159 kPa	638.8	0.252
423.09 K, 40831 kPa	655.5	0.287
423.09 K, 54591 kPa	668.8	0.344
423.09 K, 68420 kPa	676.4	0.352

Cc1ccccc1 [toluene]
Details	mass density, 323.15 K [kg/m3]	mass density, 373.11 K [kg/m3]	viscosity, 323.15 K [mPa·s]	viscosity, 373.11 K [mPa·s]
100 kPa	837	–	0.421	–
13270 kPa	–	807.3	–	0.2924
13940 kPa	850.7	–	0.482	–
26975 kPa	–	822.5	–	0.3398
27338 kPa	861.7	–	0.524	–
40789 kPa	–	834.2	–	0.3691
41055 kPa	871.5	–	0.571	–
54593 kPa	880.1	–	0.615	–
54631 kPa	–	845	–	0.419
68135 kPa	888.1	–	0.66	–
68196 kPa	–	853.4	–	0.436

From the NIST ThermoML archive (doi:10.1021/je0503296)
